# According to US20170129903A1, “COMPOUNDS COMPRISING 1,1a,2,5a-TETRAHYDROSPIRO[INDOLE-3,2a-PYRROLE]-2,5a-DIONE SYSTEM AS INHIBITORS P53-MDM2 PROTEIN-PROTEIN INTERACTION” (ADAMED SP. Z O.O., priority 2014, published 2017):
# Target: T1, p53-Mdm2 interaction (N-terminal domain of Mdm2 protein, amino acids 1-111) (Homo sapiens, UniProt Q00987)
# T1 construct: N-terminal domain of Mdm2 protein (amino acids 1-111)
# Assay: Fluorescence polarization (FP) binding assay of p53-Mdm2 interaction
# Settings: FP assay, 130 nM Mdm2, FAM-labelled p53 peptide; Ki transformed from IC50 using Kenakin equation
# Protocol: The inhibition of p53-Mdm2 interaction was measured using a fluorescence polarization (FP) binding assay. FP measures the rotational movement of molecules in a homogenous suspension. For this assay, N-terminal domain of Mdm2 protein (amino acids 1-111) is combined with a fluorescein-labelled (FAM) peptide derived from p53 trans-activation domain. Upon excitation of the fluorescent ligand with linearly polarized light, […]. If the peptide is bound by Mdm2, rotation will slow down and the perpendicular component will decrease. Disruption of the formation of the peptide-Mdm2 complex due to an inhibitor molecule binding to the p53 binding site of Mdm2 results in faster rotation of the peptide.
# Fluorescence polarization experiments were read on Tecan Infinite M1000 reader with the 470 nm excitation and 520 nm emission filters for fluorescein. The fluorescence polarization was measured in black 96-well plates (Corning, CLS3991) in room temperature. Purity of Mdm2 was controlled at >95%. Reaction buffer was optimized by adding 5 mM DTT and 0.1% zwitterionic detergent CHAPS to reduce effect of nonspecific interactions.
# The test was performed by combining successive dilution of compounds diluted in dimethyl sulfoxide (DMSO, 5% final concentration) with 130 nM Mdm2 in reaction buffer (PBS, 0.1% CHAPS, 5 mM DTT (dithiothreitol)). After 15 minutes of incubation in room temperature […] FAM-labelled peptide was added. Final reading was performed after 90 minutes of incubation. Dose-dependent binding curves and IC50 values were calculated using GraphPad Prism5 and next transformed to Ki values using Kenakin equation.
# T1 sequence (Q00987 1-111): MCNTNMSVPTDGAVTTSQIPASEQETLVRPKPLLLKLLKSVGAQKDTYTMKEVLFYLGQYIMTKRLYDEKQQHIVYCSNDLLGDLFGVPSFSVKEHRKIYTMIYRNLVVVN
row,Ki [nM],Compound
1,57,"CCOC(=O)/C=C/C(=O)Nc1cccc(C(=O)C2=C(O)C(=O)N(c3cccc(Cl)c3)C23C(=O)Nc2cc(Cl)ccc23)c1 (stereo not shown) [Compound 17, ethyl (2E)-3-[(3-{[6-chloro-1′-(3-chloro-phenyl)-4′-hydroxy-2,5′-dioxo-1,1′,2,5′-tetrahydrospiro[indole-3,2′-pyrrole]-3′-yl]carbonyl}phenyl)carbamoyl]prop-2-enoate]"
2,700,"COc1ccc(Cl)cc1N1C(=O)C(O)=C(C(=O)C2(C)CC2)C12C(=O)Nc1cc(Cl)ccc12 (stereo not shown) [Compound 7, 6-chloro-1′-(5-chloro-2-methoxyphenyl)-4′-hydroxy-3′-(1-methylcyclopropane-carbonyl)-1,1′,2,5′-tetrahydrospiro[indole-3,2′-pyrrole]-2,5′-dione]"
3,4.5,"COc1ccccc1-n1cc2c(c1C(C)C)C1(C(=O)Nc3cc(Cl)ccc31)N(c1cc(Cl)ccc1N)C2=O (stereo not shown) [Compound 91, 2′-(2-amino-5-chlorophenyl)-6-chloro-5′-(2-methoxyphenyl)-6′-(propan-2-yl)-1,2,3′,5′-tetrahydro-2′H-spiro[indole-3,1′-pyrrolo[3,4-c]pyrrole]-2,3′-dione]"
4,5.3,"COc1ccccc1-n1cc2c(c1C(C)C)C1(C(=O)Nc3cc(Cl)ccc31)N(c1cccc(Cl)c1)C2=O (stereo not shown) [Compound 89, 6-chloro-2′-(3-chlorophenyl)-5′-(2-methoxyphenyl)-6′-(propan-2-yl)-1,2,3′,5′-tetrahydro-2′H-spiro[indole-3,1′-pyrrolo [3,4-c]pyrrole]-2,3′-dione]"
5,51,"O=C(C1=C(O)C(=O)N(c2cccc(Cl)c2)C12C(=O)Nc1cc(Cl)ccc12)c1ccccc1 (stereo not shown) [Compound 3, 3′-benzoyl-6-chloro-1′-(3-chlorophenyl)-4′-hydroxy-1,1′,2,5′-tetrahydrospiro[indole-3,2′-pyrrole]-2,5′-dione]"
6,82,"CC(C)(C)SC1=C(O)C(=O)N(c2cccc(Cl)c2)C12C(=O)Nc1cc(Cl)ccc12 (stereo not shown) [Compound 58, 3′-(tert-butylsulfanyl)-6-chloro-1′-(3-chlorophenyl)-4′-hydroxy-1,1′,2,5′-tetrahydrospiro[indole-3,2′-pyrrole]-2,5′-dione]"
7,268,"CC(C)C(=O)C1=C(O)C(=O)N(c2cc(Cl)ccc2O)C12C(=O)Nc1cc(Cl)ccc12 (stereo not shown) [Compound 9, 6-chloro-1′-(5-chloro-2-hydroxyphenyl)-4′-hydroxy-3′-(iso-propanoyl)-1,1′,2,5′-tetrahydrospiro[indole-3,2′-pyrrole]-2,5′-dione]"
8,123,"O=C1C(O)=C(Sc2ccc(Cl)cc2)C2(C(=O)Nc3cc(Cl)ccc32)N1c1cccc(Cl)c1 (stereo not shown) [Compound 54, 6-chloro-1′-(3-chlorophenyl)-3′-[(4-chlorophenyl)sulfanyl]-4′-hydroxy-1,1′,2,5′-tetrahydrospiro[indole-3,2′-pyrrole]-2,5′-dione]"
9,1390,"COc1ccccc1-n1nc(C(C)C)c2c1C(=O)N(c1cc(Cl)ccc1C)C21C(=O)Nc2cc(Cl)ccc21 (stereo not shown) [Compound 32, 6-chloro-5′-(5-chloro-2-methylphenyl)-1′-(2-methoxyphenyl)-3′-(propan-2-yl)-1,2,5′,6′-tetrahydro-1′H-spiro[indole-3,4′-pyrrolo[3,4-c]pyrazole]-2,6′-dione]"
10,38,"O=C(O)CNC1=C(c2ccccc2)C2(C(=O)Nc3cc(Cl)ccc32)N(c2cccc(Cl)c2)C1=O (stereo not shown) [Compound 49, 2-{[6-chloro-1′-(3-chlorophenyl)-2,5′-dioxo-3′-phenyl-1,1′,2,5′-tetrahydrospiro [indole-3,2′-pyrrole]-4′-yl]amino}acetic acid]"
11,79,"CCC(C)SC1=C(O)C(=O)N(c2cccc(Cl)c2)C12C(=O)Nc1cc(Cl)ccc12 (stereo not shown) [Compound 57, 3′-(butan-2-ylsulfanyl)-6-chloro-1′-(3-chlorophenyl)-4′-hydroxy-1,1′,2,5′-tetrahydrospiro[indole-3,2′-pyrrole]-2,5′-dione]"
12,550,"O=C1C(O)=C(c2ccccc2)C2(C(=O)Nc3ccc(Cl)cc32)N1c1cccc(Cl)c1 (stereo not shown) [Compound 38, 5-chloro-1′-(3-chlorophenyl)-4′-hydroxy-3′-phenyl-1,1′,2,5′-tetrahydrospiro[indole-3,2′-pyrrole]-2,5′-dione]"

# More lines, now with the values behind:
row,Compound,Ki [nM]
1,"CCOC(=O)CNC1=C(C(=O)C2(C)CC2)C2(C(=O)Nc3cc(Cl)ccc32)N(c2cccc(Cl)c2)C1=O (stereo not shown) [Compound 15, ethyl 2-{[6-chloro-1′-(3-chlorophenyl)-3′-(1-methylcyclopropanecarbonyl)-2,5′-dioxo-1,1′,2,5′-tetrahydrospiro[indole-3,2′-pyrrole]-4′-yl]amino}acetate]",349
2,"CC1(C(=O)C2=C(O)C(=O)N(c3cccc(Cl)c3)C23C(=O)Nc2cc(Cl)ccc23)CC1 (stereo not shown) [Compound 5, 6-chloro-1′-(3-chlorophenyl)-4′-hydroxy-3′-(1-methylcyclopropanecarbonyl)-1,1′,2,5′-tetrahydrospiro[indole-3,2′-pyrrole]-2,5′-dione]",194
3,"CC(C)c1[nH]nc2c1C1(C(=O)Nc3cc(Cl)ccc31)N(c1cncc(Cl)c1)C2=O (stereo not shown) [Compound 83, 6-chloro-5′-(5-chloropyridin-3-yl)-3′-(propan-2-yl)-1,2,5′,6′-tetrahydro-2′H-spiro [indole-3,4′-pyrrolo[3,4-c]pyrazole]-2,6′-dione]",152
4,"CC(C)(C)C(=O)C1=C(O)C(=O)N(c2cccc(Cl)c2)C12C(=O)Nc1cc(Cl)ccc12 (stereo not shown) [Compound 6, 6-chloro-1′-(3-chlorophenyl)-3′-(2,2-tert-butanoyl)-4′-hydroxy-1,1′,2,5′-tetrahydrospiro[indole-3,2′-pyrrole]-2,5′-dione]",102
5,"COc1ccc(C(N)=O)cc1-n1nc2c(c1C(C)C)C1(C(=O)Nc3cc(Cl)ccc31)N(c1cc(Cl)ccc1O)C2=O (stereo not shown) [Compound 75, 3-[6-chloro-5′-(5-chloro-2-hydroxy-phenyl)-2,6′-dioxo-3′-(propan-2-yl)-1,2,5′,6′-tetrahydro-2′H-spiro[indole-3,4′-pyrrolo[3,4-c]pyrazole]-2′-yl]-4-methoxybenzamide]",3.6
6,"CC(C)c1[nH]nc2c1C1(C(=O)Nc3cc(Cl)ccc31)N(c1cc(Cl)ccn1)C2=O (stereo not shown) [Compound 82, 6-chloro-5′-(4-chloropyridin-2-yl)-3′-(propan-2-yl)-1,2,5′,6′-tetrahydro-2′H-spiro [indole-3,4′-pyrrolo[3,4-c]pyrazole]-2,6′-dione]",425
7,"COc1cccc(OC)c1-n1nc2c(c1C(C)C)C1(C(=O)Nc3cc(Cl)ccc31)N(c1cc(Cl)ccc1C)C2=O (stereo not shown) [Compound 70, 6-chloro-5′-(5-chloro-2-methylphenyl)-2′-(2,6-dimethoxyphenyl)-3′-(propan-2-yl)-1,2,5′,6′-tetrahydro-2′H-spiro[indole-3,4′-pyrrolo[3,4-c]pyrazole]-2,6′-dione]",120
8,"COc1ccc(C(=O)O)cc1-n1nc2c(c1C(C)C)C1(C(=O)Nc3cc(Cl)ccc31)N(c1cc(Cl)ccc1O)C2=O (stereo not shown) [Compound 76, 3-[6-chloro-5′-(5-chloro-2-hydroxy-phenyl)-2,6′-dioxo-3′-(propan-2-yl)-1,2,5′,6′-tetrahydro-2′H-spiro[indole-3,4′-pyrrolo[3,4-c]pyrazole]-2′-yl]-4-methoxybenzoic acid]",3.6
9,"CC1(C(=O)C2=C(O)C(=O)N(c3cc(Cl)ccc3F)C23C(=O)Nc2cc(Cl)ccc23)CC1 (stereo not shown) [Compound 1, 6-chloro-1′-(5-chloro-2-fluorophenyl)-4′-hydroxy-3′-(1-methylcyclopropane-carbonyl)-1,1′,2,5′-tetrahydrospiro[indole-3,2′-pyrrole]-2,5′-dione]",354
10,"CC(C)OCC(C)(C)C(=O)C1=C(O)C(=O)N(c2cccc(Cl)c2)C12C(=O)Nc1cc(Cl)ccc12 (stereo not shown) [Compound 13, 6-chloro-1′-(3-chlorophenyl)-3′-[2,2-dimethyl-3-(propan-2-yloxy)propanoyl]-4′-hydroxy-1,1′,2,5′-tetrahydrospiro[indole-3,2′-pyrrole]-2,5′-dione]",196
11,"COc1ccc(Cl)cc1N1C(=O)C(O)=C(C(=O)C(C)C)C12C(=O)Nc1cc(Cl)ccc12 (stereo not shown) [Compound 10, 6-chloro-1′-(5-chloro-2-methoxyphenyl)-4′-hydroxy-3′-(iso-propanoyl)-1,1′,2,5′-tetrahydrospiro[indole-3,2′-pyrrole]-2,5′-dione]",610
12,"COc1ccccc1-n1nc2c(c1C(C)C)C1(C(=O)Nc3cc(Cl)ccc31)N(c1cc(Cl)c(=O)n(C)c1)C2=O (stereo not shown) [Compound 63, 6-chloro-5′-(5-chloro-1-methyl-6-oxo-1,6-dihydropyridin-3-yl)-2′-(2-methoxy-phenyl)-3′-(propan-2-yl)-1,2,5′,6′-tetrahydro-2′H-spiro[indole-3,4′-pyrrolo [3,4-c]pyrazole]-2,6′-dione]",2.4
13,"Cc1ccc(Cl)cc1N1C(=O)C(O)=C(C(=O)C(C)C)C12C(=O)Nc1cc(Cl)ccc12 (stereo not shown) [Compound 8, 6-chloro-1′-(5-chloro-2-methylphenyl)-4′-hydroxy-3′-(iso-propanoyl)-1,1′,2,5′-tetrahydrospiro[indole-3,2′-pyrrole]-2,5′-dione]",120
